The text below walks through data of US20240325435A1, “METHODS OF USING COMPOUND OF GLYCOSAMINOGLYCAN” (Holy Stone Healthcare Co., Ltd., priority 2013, published 2024).

Test [1] relates to Raw 264.7 cells. Description: In vitro anti-inflammatory effect, PGE2 amount in LPS-treated Raw 264.7 cells. Type of test: cell-based. The following applies: 4 hours.
Method: Raw 264.7 cells (1×10^6 cells/well, 1000 μL) were incubated in a 24-well culture plate in the presence of 5% CO2 at 37° C. for 24 hours. • 2. […] Cell media were collected, and used for measuring PGE2. • 4. Nunc-Immuno 96-well plates were coated with goat polyclonal anti-mouse IgG secondary antibody. • 5. Aliquots of cell media were added to the immune plate with primary PGE2 monoclonal antibody and a tracer PGE2-acetylcholinesterase overnight at room temperature in the dark. • 6. The next day, the wells were aspirated, washed with 100 μL wash buffer (Cayman Chemical, Ann Arbor, MI, USA) five times. • 7. 200 μL of Elman's reagent was added in each well, and incubated 60-90 minutes at room temperature out of direct light. • 8. Gentle rotating/shaking was used to decrease the time required for color development. • 9. Absorbance was read at 412 nm. • 10. The PGE2 concentration of each sample was calculated from a PGE2 standard curve. • 11. The PGE2 amount percentage was as a function of the PGE2 level of each sample divided by the one of the control group which was LPS-treated, then multiplied this value by 100. • 12. […]
Raw 264.7 cells (1×10^6 cells/well, 1000 μL) were incubated in a 24-well culture plate in the presence of 5% CO2 at 37° C. for 24 hours. • 2. […] Absorbance was read at 412 nm. • 10. The PGE2 concentration of each sample was calculated from a PGE2 standard curve. • 11. […]
The subject of test [2] is Adjuvant-Induced Arthritis (AIA). As to the kind of experiment: Adjuvant-Induced Arthritis (rheumatoid arthritis) treatment effect in rats. The note with it: intravenous injection at day 14, 10 mg/kg. Type of test: in vivo, Sprague-Dawely rats. Here is the method: • 1. Thirty of eight weeks male Sprague-Dawely rats (BioLASCO Taiwan Co., Ltd.) were prepared. Rats were divided into 4 groups randomly (n=9 for vehicle and Prednisolone group, n=6 for HA-ADH-Prednisolone and HA group). Every two rats were placed into one cage in rodent animal facility in Institute of Taiwan Animal Technology. • 2. Inject 0.1 mL of CFA (Complete Freund's Adjuvant, 10 mg/mL, Chondrex Inc.) containing 10 mg/mL of heat-killed mycobacterium into subcutaneously at a footpad of right hind limb. • 3. The needle should be inserted just under the skin of the footpad pointing toward the ankle: this maximizes delivery of the adjuvant to the draining popliteal lymph nodes. • 4. Severe and acute inflammation is observed within 30 minutes of injection, peaks within 3 to 4 days, and often persists for 20 to 25 days. • 5. Rat were treated at day 14 after induction of the Adjuvant-Induced Arthritis (AIA) by intravenous injection of Prednisolone or HA-Prednisolone (both 10 mg/kg), or saline as a control. • 6. Rats were sacrificed at day 20 after treatment and tissues were isolated hereafter.
• Paw thickness and Ankle circumference: Paw thickness determined by measuring paw diameter using a caliper, such as Mitsutoyo digimatic caliper. Ankle circumference determined by measuring 2 perpendicular diameters, the latero-lateral diameter (a) and the anteroposterior diameter (b), with a digital caliper and using the following formula: […]

For test [3], the system named is Raw 264.7 cells. Description: In vitro anti-inflammatory effect, nitrite by Griess reaction in LPS-treated Raw 264.7 cells. The note with it: 10 μM Budesonide equivalent, 378 μg/ml HA, 4 hours, then 1 μg/mL LPS 24 hours. The format is cell-based. Here is the method: • 1. Raw 264.7 cells were suspended in culture medium without phenol red (Gibco-BRL, Vienna, Austria) and adjusted to 10^6/ml, and treated with 10 μM Budesonide, 378 μg/ml HA and HA-ADH-Budesonide (equal to 10 μM Budesonide). • 2. After treatment with drugs for 4 hours, 1 μg/mL LPS was added into medium for 24 hours. • 3. Cells treated with medium only served as a negative control group and treated with LPS (1 μg/mL) as a positive control group. • 4. The culture supernatants were removed subsequently and the nitric oxide were accumulated for the measurement of iNOS activity by the Griess-reaction. • 5. 100 μl Griess reagent (1% sulfanilamide, 0.1% naphthlethylenediamine dihydrochloride in 2.5% phosphoric acid) was added into 100 μl culture supernatant and the color development was assessed at 550 nm with a ELISA microplate reader (SpectraMax® M2e Multimode Plate Reader, Molecular Devices, USA). • 6. Standard curves were generated with a serial dilution of sodium nitrite dissolved in culture medium which is phenol red free. […] The inflammation index herein is nitrite.

Turning to `C[C@]12C=CC(=O)C=C1CC[C@@H]1[C@@H]2[C@@H](O)C[C@@]2(C)[C@H]1CC[C@]2(O)C(=O)CO` [Prednisolone], the “anti-inflammation effect, change percentage of PGE2 amount (FIG. 10)” value in test [1] (86.7 μM Prednisolone or equivalent, then 1 μg/mL LPS 24 hours) is “has treatment effect”. Besides, the “treatment effect, change percentage of paw thickness (FIG. 11)” value in test [2] is on record as “showed the treatment effect”.
Turning to `CC(C)(C(=O)O)c1ccc(C(O)CCCN2CCC(C(O)(c3ccccc3)c3ccccc3)CC2)cc1` (stereo not drawn) [Fexofenadine], the “anti-inflammation effect, change percentage of PGE2 amount (FIG. 8)” value in test [1] (100 μM Fexofenadine or equivalent, then 1 μg/mL LPS 24 h) was “has treatment effect”.
As to hyaluronic acid [HA], the “anti-inflammation effect, change of nitrite concentration (FIG. 6)” value in test [3] is recorded as “have treatment effect”. In test [2], the “treatment effect, change percentage of ankle circumference (FIG. 12)” value is given as “enhance RA symptom” and the “treatment effect, change percentage of paw thickness (FIG. 11)” value is listed as “almost the same trend comparing with control group”.
